In US9988381B2, “Five-member-heterocycle fused pyridine compounds, method of producing the same, and use thereof” (SHANGHAI INSTITUTE OF MATERIA MEDICA, CHINESE ACADEMY OF …, priority 2013, dated 2018):
Read-outs that look alike come from different tables or passages of the source.

How the values were obtained:
[1] = target: T1, c-Met kinase domain recombinant protein (Homo sapiens, UniProt P08581); assay: biochemical; details: for inhibition at 0.1 µM: read-out: Average inhibition rate at 0.1 μM (%); for inhibition at 1 µM: read-out: Average inhibition rate at 1 μM (%); for inhibition at 10 µM: read-out: Average inhibition rate at 10 μM (%)
T1 construct: 50 μL diluted solution of c-Met kinase domain recombinant protein in reaction buffer was added to initiate the reaction
T1 sequence (P08581 1078-1345 limits assumed): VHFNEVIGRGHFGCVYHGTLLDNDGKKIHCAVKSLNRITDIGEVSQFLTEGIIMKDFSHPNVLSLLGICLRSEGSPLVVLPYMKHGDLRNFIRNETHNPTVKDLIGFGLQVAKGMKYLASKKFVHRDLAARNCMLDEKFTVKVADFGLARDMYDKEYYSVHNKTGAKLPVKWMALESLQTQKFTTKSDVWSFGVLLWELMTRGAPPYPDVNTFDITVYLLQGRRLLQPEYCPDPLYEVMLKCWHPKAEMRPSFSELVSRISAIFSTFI
Protocol: (§1) Enzymatic reaction substrate Poly(Glu,Tyr)4:1 was diluted to 20 μg/mL in potassium ion free PBS (10 mM sodium phosphate buffer, 150 mM NaCl, pH7.2-7.4), microplate was coated with this solution at 125 μL per well, and reacted at 37° C. for 12-16 hours. Liquid in wells was discarded, then the plate was washed 3 times for 5 minutes each with 200 μL per well of T-PBS (PBS containing 0.1% Tween-20).
Into each well was added 50 μL diluted ATP solution in reaction buffer (50 mM HEPES pH 7.4, 50 mM MgCl2, 0.5 mM MnCl2, 0.2 mM Na3VO4, 1 mM DTT), the final concentration was 5 μM. Test compound was diluted in DMSO to proper concentration, added at 1 μL per well or corresponding level of DMSO (negative control wells), then 49 μL diluted solution of c-Met kinase domain recombinant protein in reaction buffer was added to initiate the reaction, each test was setup with two wells of ATP free control. Reaction was performed in a 37° C. shaker (100 rpm) for 1 hour. The plate was washed three times with T-PBS. Primary antibody PY99 diluted solution was added at 100 μL per well, incubated in a 37° C. shaker for 0.5 hour.
The plate was washed three times with T-PBS. Goat anti mouse secondary antibody labeled with horseradish peroxidase was added at 100 μL per well, incubated in a 37° C. shaker for 0.5 hour. The plate was washed three times with T-PBS. […] Reaction was terminated by adding 50 μL per well of 2M H2SO4, the plate was read at 490 nm using a SPECTRA MAX 190 microplate reader with tunable wavelength.
(§2) Inhibition rate of the sample was calculated using the following equation: […]
IC50 was calculated by fitting the data for a four parameter fit using inhibition curve.

[2] = target: T1, c-Met kinase domain recombinant protein; assay: biochemical; details: read-out: Inhibition rate at 10 μM (%)
Protocol: as §1, with “discarded. Plate washing:” for “discarded, then”, “(potassium ion free PBS” for “(PBS”
Into each well was added 49 μL diluted ATP solution in reaction buffer (50 mM HEPES pH 7.4, 50 mM MgCl2, 0.5 mM MnCl2, 0.2 mM Na3VO4, 1 mM DTT), and 1 μL per well of compound to be tested was added, then 50 μL diluted solution of c-Met kinase domain recombinant protein in reaction buffer was added to initiate the reaction, each test was setup with two wells of ATP free control. Reaction was performed in a 37° C. shaker (100 rpm) for 1 hour. Liquid in the wells was discarded, and the plate was washed three times with T-PBS.
Antibody PY99 was added at 100 μL per well (the antibody was 1:500 diluted in T-PBS containing 5 mg/mL BSA), incubated in a 37° C. shaker for 0.5 hour. Liquid in the wells was discarded, and the plate was washed three times with T-PBS.
Goat anti mouse secondary antibody labeled with horseradish peroxidase was added at 100 μL per well (the antibody was 1:2000 diluted in T-PBS containing 5 mg/mL BSA), incubated in a 37° C. shaker for 0.5 hour. Liquid in the wells was discarded, and the plate was washed three times with T-PBS.
Reaction was terminated by adding 50 μL per well of 2M H2SO4, the plate was read at 490 nm using a VERSAmax microplate reader with tunable wavelength.
as §2

Structure (SMILES)	inhibition at 0.1 µM [1]	inhibition at 1 µM [1]	inhibition at 10 µM [1]	inhibition at 10 µM [2]	IC50 [1]
Cn1cc(-c2cnc3cnn(S(=O)(=O)c4ccccc4C#N)c3c2)cn1 [Compound 8, 1-(2-cyanobenzenesulfonyl)-6-[(1-methyl)-4-pyrazolyl]-1-H-pyrazolo[4,3-b]pyridine]	9.2%	51.6%	72.4%	72.4%	
Cn1cc(-c2cnc3cnn(S(=O)(=O)c4ccc([N+](=O)[O-])cc4)c3c2)cn1 [Compound 9, 1-(4-nitrobenzenesulfonyl)-6-[(1-methyl)-4-pyrazolyl]-1-H-pyrazolo[4,3-b]pyridine]			22%	22%	
COc1ccc(S(=O)(=O)n2ncc3ncc(-c4cnn(C)c4)cc32)cc1OC [Compound 10, 1-(3,4-dimethoxybenzenesulfonyl)-6-[(1-methyl)-4-pyrazolyl]-1-H-pyrazolo[4,3-b]pyridine]			37.9%	37.9%	
Cc1noc(C)c1S(=O)(=O)n1ncc2ncc(-c3cnn(C)c3)cc21 [Compound 11, 1-(3,5-dimethylisoxazolesulfonyl)-6-[(1-methyl)-4-pyrazolyl]-1-H-pyrazolo[4,3-b]pyridine]			48.6%	48.6%	
Cn1cc(-c2cnc3cnn(S(=O)(=O)c4ccc(F)cc4F)c3c2)cn1 [Compound 12, 1-(2,4-difluorobenzenesulfonyl)-6-[(1-methyl)-4-pyrazolyl]-1-H-pyrazolo[4,3-b]pyridine]			37.5%	37.5%	
CC(=O)c1ccc(S(=O)(=O)n2ncc3ncc(-c4cnn(C)c4)cc32)cc1 [Compound 13, 1-(4-acetylbenzenesulfonyl)-6-[(1-methyl)-4-pyrazolyl]-1-H-pyrazolo[4,3-b]pyridine]	28.5%	45.3%	52.6%	52.6%	
Cn1cc(-c2cnc3cnn(S(=O)(=O)c4ccccc4C(F)(F)F)c3c2)cn1 [Compound 14, 1-(2-trifluoromethylbenzenesulfonyl)-6-[(1-methyl)-4-pyrazolyl]-1-H-pyrazolo[4,3-b]pyridine]	39.9%	54.7%	74.3%	74.3%	
Cn1cc(-c2cnc3cnn(S(=O)(=O)c4ccc(C(F)(F)F)cc4)c3c2)cn1 [Compound 15, 1-(4-trifluoromethylbenzenesulfonyl)-6-[(1-methyl)-4-pyrazolyl]-1-H-pyrazolo[4,3-b]pyridine]			40.6%	40.6%	
Cn1cc(-c2cnc3cnn(S(=O)(=O)c4cccc(C(F)(F)F)c4)c3c2)cn1 [Compound 16, 1-(3-trifluoromethylbenzenesulfonyl)-6-[(1-methyl)-4-pyrazolyl]-1-H-pyrazolo[4,3-b]pyridine]	25.2%	56.1%	73.2%	73.2%	
COc1ccc(S(=O)(=O)n2ncc3ncc(-c4cnn(C)c4)cc32)cc1 [Compound 17, 1-(4-methoxybenzenesulfonyl)-6-[(1-methyl)-4-pyrazolyl]-1-H-pyrazolo[4,3-b]pyridine]			49.9%	49.9%	
Cn1cc(-c2cnc3cnn(S(=O)(=O)c4cnn5cccnc45)c3c2)cn1 [Example 22, 1-(pyrazolo[1,5-a]pyrimidine-3-sulfonyl)-6-[(1-methyl)-4-pyrazolyl]-1-H-pyrazolo[4,3-b]pyridine]	24.9%	58.7%	69.5%	69.5%	39.7 ± 6.3 nM
Cn1cc(-c2cnc3cnn(S(=O)(=O)c4cnc5ncccn45)c3c2)cn1 [Example 23, 1-(imidazo[1,2-a]pyrimidine-3-sulfonyl)-6-[(1-methyl)-4-pyrazolyl]-1-H-pyrazolo[4,3-b]pyridine]	26.9%	52.7%	65.1%	65.1%	3.7 ± 1.4 nM
Cn1cc(-c2cnc3cnn(S(=O)(=O)c4cnc5ccc(C(F)(F)F)cn45)c3c2)cn1 [Example 26, 1-[(6-trifluoromethyl-imidazo[1,2-a]pyridine)-3-sulfonyl]-6-[(1-methyl)-4-pyrazolyl]-1-H-pyrazolo[4,3-b]pyridine]	60%	63.8%	65.2%	65.2%	33.9 ± 6.9 nM
O=S(=O)(c1cnc2ccccn12)n1ncc2ncc(-c3cccnc3)cc21 [Example 30, 1-(imidazo[1,2-a]pyridine-3-sulfonyl)-6-(3-pyridinyl)-1-H-pyrazolo[4,3-b]pyridine]	48.3%	59.7%	71%	71%	
CC(C)(C)OC(=O)N1CC=C(c2cnc3cnn(S(=O)(=O)c4cnc5ccccn45)c3c2)CC1 [Example 35, 1-(imidazo[1,2-a]pyridine-3-sulfonyl)-6-[(1-t-butoxycarbonyl)-4-(1,2,3,6-tetrahydropyridinyl)]-1-H-pyrazolo[4,3-b]pyridine]	51.1%	53.2%	62.5%	62.5%	

Next, values leading:

inhibition at 0.1 µM [1]	inhibition at 1 µM [1]	inhibition at 10 µM [1]	inhibition at 10 µM [2]	IC50 [1]	Structure (SMILES)
59%	64.1%	69%	69%		O=S(=O)(c1cnc2ccccn12)n1ncc2ncc(-c3ccoc3)cc21 [Example 31, 1-(imidazo[1,2-a]pyridine-3-sulfonyl)-6-(3-furanyl)-1-H-pyrazolo[4,3-b]pyridine]
52.9%	52%	64.2%	64.2%		O=S(=O)(c1cnc2ccccn12)n1ncc2ncc(-c3ccc(C(F)(F)F)cc3)cc21 [Example 32, 1-(imidazo[1,2-a]pyridine-3-sulfonyl)-6-(4-trifluoromethylphenyl)-1-H-pyrazolo[4,3-b]pyridine]
39.9%	47.3%	53.7%	53.7%		O=S(=O)(c1cnc2ccccn12)n1ncc2ncc(-c3ccc4ccccc4c3)cc21 [Example 33, 1-(imidazo[1,2-a]pyridine-3-sulfonyl)-6-(2-naphthyl)-1-H-pyrazolo[4,3-b]pyridine]
31.3%	49.3%	61.3%	61.3%		CS(=O)(=O)Nc1ccc(-c2cnc3cnn(S(=O)(=O)c4cnc5ccccn45)c3c2)cc1 [Example 34, 1-(imidazo[1,2-a]pyridine-3-sulfonyl)-6-(4-methylsulfamidophenyl)-1-H-pyrazolo[4,3-b]pyridine]
45.6%	60%	66.3%	66.3%		O=S(=O)(c1cnc2ccccn12)n1ncc2ncc(-c3ccc4c(c3)OCCO4)cc21 [Example 36, 1-(imidazo[1,2-a]pyridine-3-sulfonyl)-6-[6-(1,4-benzodioxanyl)]-1-H-pyrazolo[4,3-b]pyridine]
63.2%	63.9%	87.1%	87.1%		O=S(=O)(c1cnc2ccccn12)n1ncc2ncc(-c3ccc(CN4CCOCC4)cc3)cc21 [Example 38, 1-(imidazo[1,2-a]pyridine-3-sulfonyl)-6-(4-morpholinomethylphenyl)-1-H-pyrazolo[4,3-b]pyridine]
45.7%	57.4%	66%	66%		CC(=O)c1ccc(-c2cnc3cnn(S(=O)(=O)c4cnc5ccccn45)c3c2)cc1 [Example 40, 1-(imidazo[1,2-a]pyridine-3-sulfonyl)-6-(4-acetylphenyl)-1-H-pyrazolo[4,3-b]pyridine]
